Data on three compounds can be found in patent US20220072089A1, “CANCER THERAPEUTIC COMPOSITIONS AND METHODS” (University of Vermont and State Agricultural College, priority 2018, published 2022).

Like-named read-outs stand apart in the source and are kept apart here.

In assay [1] the test system is Malignant mesothelioma (MM) cells. Nature of the assay: Malignant mesothelioma cell viability (cell number), Example 1. Type of assay: cell-based. Particulars: Homo sapiens. As to the method:
Malignant mesothelioma (MM) cells were incubated with increasing concentrations of TS (0-10 μM) and TLK-199 (0-200 μM) for 48 hours and then assayed for cell number (viability).

Assay [2] concerns MM cells. Kind of assay: Combinations administered to subjects with malignant mesothelioma, Example 8. It counts as in vivo. As to the method:
Subjects with malignant mesothelioma (MM) are administered (1) thiostrepton (TS) and TLK-199, (2) TS, gentian violet (GV), and TLK or (3) GV and TLK-199.

In assay [3] the test system is patients with myelodysplatic syndrome. Particulars: 50-600 mg/m^2 IV over 60 minutes; cited from earlier work.
The target of assay [4] is T1, peroxiredoxin 3 (PRX3) (Homo sapiens, UniProt P30048).
T1 construct: endogenous in cells
T1 sequence (P30048 62-256): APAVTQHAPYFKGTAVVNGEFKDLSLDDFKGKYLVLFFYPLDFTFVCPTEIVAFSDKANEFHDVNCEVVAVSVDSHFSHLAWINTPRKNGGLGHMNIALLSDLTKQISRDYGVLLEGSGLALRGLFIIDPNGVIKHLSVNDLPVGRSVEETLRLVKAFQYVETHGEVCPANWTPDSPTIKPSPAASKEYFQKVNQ
Kind of assay: Covalent adduction of PRX3 in MM cells (reducing SDS-PAGE, western blot), Example 7. Type of assay: cell-based. The settings on record: 0, 2, 4 μM TS alone or with 30 μM TLK-199, 24 hours, FIG. 4. As for the experimental part:
Malignant mesothelioma (MM) cells were incubated with 0, 2,and 4 μM Thiostrepton (TS) alone or in the presence of 30 μM TLK-199 for 24 hours. Cell lysates were collected, and proteins were separated by reducing SDS-Polyacrylamide Gel Electrophoresis.
(In general: A western blot detects proteins with antibodies after separation by electrophoresis.)

[5] abbreviates: single agent, malignant mesothelioma cells, 48 hours, read-out: inhibitory concentration required to kill 50% of cells (IC50).

With `CN(C)c1ccc(C(=C2C=CC(=[N+](C)C)C=C2)c2ccc(N(C)C)cc2)cc1` [GV, Gentian violet], the IC50 in assay [1] (setting [5]) is 150 nM.
For `CCOC(=O)[C@@H](NC(=O)[C@H](CSCc1ccccc1)NC(=O)CC[C@H](N)C(=O)OCC)c1ccccc1` [TLK-199, (S)-ethyl 2-amino-5-(((R)-3-(benzylthio)-1-(((S)-2-ethoxy-2-oxo-1-phenylethyl)amino)-1-oxopropan-2-yl)amino)-5-oxopentanoate], in assay [2], the “effect of including TLK-199 on reduction in viability of MM cells” value is “synergistic effect”. The IC50 in assay [1] (setting [5]) was found to be 45000 nM. Besides, in assay [3], the “bone marrow maturation and cellularity” value is “Improvement in bone marrow maturation and cellularity”; the clinical symptoms entry is given as “improvement in clinical symptoms”; the transfusion requirements result was “reductions in transfusion requirements”.
Take `C=C(NC(=O)C(=C)NC(=O)c1csc(C2=N[C@@H]3c4csc(n4)[C@H]4NC(=O)c5csc(n5)[C@H]([C@](C)(O)[C@@H](C)O)NC(=O)[C@H]5CSC(=N5)/C(=C/C)NC(=O)[C@H]([C@@H](C)O)NC(=O)c5csc(n5)[C@]3(CC2)NC(=O)[C@H](C)NC(=O)C(=C)NC(=O)[C@H](C)NC(=O)[C@H]([C@@H](C)CC)N[C@@H]2C=Cc3c([C@H](C)O)cc(nc3[C@H]2O)C(=O)O[C@@H]4C)n1)C(N)=O` [TS, Thiostrepton]: the “covalent adduction of PRX3 (PRX3 dimer:monomer ratio)” value in assay [4] is listed as “PRX3 monomers were covalently crosslinked”. The IC50 is ~1500 nM in assay [1] (48 h, read-out: inhibitory concentration required to kill 50% of cells (IC50)) and 900 to 2400 nM in assay [1] (read-out: calculated IC50).
